According to US9035056B2, “Pyrido[4,3-b]indole and pyrido[3,4-b]indole derivatives and methods of use” (Medivation Technologies, Inc., priority 2011, dated 2015):

Assays:
[1] = tested on: New Zealand White rabbits; settings: conscious rabbits, intravenous, positive control, before the blood pressure reversed back
Protocol: Four adult New Zealand White rabbits of both sexes are chosen for these studies. The experiments are conducted in accordance with the Australian code of Practice for the Care and use of Animals for Scientific Purposes and approval is sought from the Animal Experimental Committee of Alfred Hospital, Baker IDI, Melbourne, Australia. The conscious rabbits are implanted with an intravenous catheter in marginal ear vein or by centrally by […] catheter interfaced to a pressure transducer connected to a suitable recorder. To unveil peripheral effects of test compound, two sets of acute studies are conducted in rabbits. In the first set of studies, test compound is dosed to rabbit intravenously for a dose-response study with cumulative doses starting 0 (Ringer's Lock solution as a vehicle), 0.1, 0.3, 1, 3.2 and 10 mg/kg where each dose is tested on a separate day. A single intravenous bolus dose at 3 mg/kg is given and a time-course study is conducted in the second set of studies. Systolic, […], mean and […] blood pressures are recorded in both the studies.

[2] = target: T1, human recombinant histamine H1 receptor (Homo sapiens, UniProt P35367); experiment: Histamine H1 radioligand binding ([3H]Pyrilamine); settings: 1 μM compound; read-out: Binding data (Percentage inhibition) Histamine H1 (1 μM)
T1 construct: expressed in transfected cells; host or cells: CHO-K1
Protocol: To evaluate in radioligand binding assays the activity of compounds of the invention, human recombinant histamine H1 receptor expressed in Chinese hamster ovary (CHO) K1 cells (De Backer, M. et al, Biochem. Biophys. Res. Comm. 197(3):1601, 1993) in a modified Tris-HCl buffer (50 mM Tris-HCl, pH 7.4, 2 mM MgCl2, 100 mM NaCl, 250 mM Sucrose) was used. Compounds of the invention were incubated with 1.2 nM [^3H]Pyrilamine for 180 min at 25° C. Non-specific binding was estimated in the presence of 1 μM Pyrilamine. Receptor proteins were filtered and washed, the filters were then counted to determine [^3H]Pyrilamine specifically bound. Compounds were screened at 1 μM or lower, using 1% DMSO as vehicle. Biochemical assay results are presented as the percent inhibition of specific binding in Table 3.

[3] = target: T2, human recombinant dopamine D2L receptor (Homo sapiens, UniProt P14416); experiment: Dopamine D2L radioligand binding ([3H]Spiperone); settings: 1 μM compound; read-out: Percentage inhibition of ligand binding, Dopamine D2L
T2 construct: expressed in transfected cells; host or cells: CHO
Protocol: To evaluate in radioligand binding assays the activity of compounds of the invention, human recombinant dopamine D2L receptor expressed in Chinese hamster ovary (CHO) cells (Grandy, D. et al, Proc. Natl. Acad. Sci. USA. 86:9762, 1989; Hayes, G. et al, Mol. Endocrinol. 6:920, 1992) in a modified Tris-HCl buffer (50 mM Tris-HCl, pH 7.4, 1.4 mM Ascorbic Acid, 0.001% BSA, 150 mM NaCl) was used. Compounds of the invention were incubated with 0.16 nM [^3H]Spiperone for 120 min at 25° C. Non-specific binding was estimated in the presence of 10 μM Haloperidol. Receptor proteins were filtered and washed, the filters were then counted to determine [^3H]Spiperone specifically bound. Compounds were screened at 1 μM or lower, using 1% DMSO as vehicle. Biochemical assay results are presented as the percent inhibition of specific binding in Table 4.

[4] = target: T3, human recombinant serotonin (5-Hydroxytryptamine) 5-HT2A receptor (Homo sapiens, UniProt P28223); experiment: Serotonin 5-HT2A radioligand binding ([3H]Ketanserin); settings: 0.1 μM compound; read-out: Percentage inhibition of ligand binding, Serotonin 5-HT2A
T3 construct: expressed in transfected cells; host or cells: CHO-K1
Protocol: To evaluate in radioligand binding assays the activity of compounds of the invention, human recombinant serotonin (5-Hydroxytryptamine) 5-HT2A receptor expressed in Chinese hamster ovary (CHO) K1 cells (Bonhaus, D. et al, Br. J. Pharmacol. 115:622, 1995; Saucier, C. et al, J. Neurochem. 68:1998, 1997) in a 50 mM Tris-HCl buffer, pH 7.4, was used. Compounds of the invention were incubated with 0.5 nM [^3H]Ketanserin for 60 min at 25° C. Non-specific binding was estimated in the presence of 1 μM Mianserin. Receptor proteins were filtered and washed, the filters were then counted to determine [^3H]Ketanserin specifically bound. Compounds were screened at 1 μM or lower, using 1% DMSO as vehicle. Biochemical assay results are presented as the percent inhibition of specific binding in Table 5.

[5] = target: T4, human recombinant serotonin (5-Hydroxytryptamine) 5-HT2C receptor (Homo sapiens, UniProt P28335); experiment: Serotonin 5-HT2C radioligand binding ([3H]Mesulergine); settings: 0.1 μM compound; read-out: Percentage inhibition of ligand binding, Serotonin 5-HT2C
T4 construct: expressed in transfected cells; host or cells: CHO-K1
T4 sequence (P28335 33-458): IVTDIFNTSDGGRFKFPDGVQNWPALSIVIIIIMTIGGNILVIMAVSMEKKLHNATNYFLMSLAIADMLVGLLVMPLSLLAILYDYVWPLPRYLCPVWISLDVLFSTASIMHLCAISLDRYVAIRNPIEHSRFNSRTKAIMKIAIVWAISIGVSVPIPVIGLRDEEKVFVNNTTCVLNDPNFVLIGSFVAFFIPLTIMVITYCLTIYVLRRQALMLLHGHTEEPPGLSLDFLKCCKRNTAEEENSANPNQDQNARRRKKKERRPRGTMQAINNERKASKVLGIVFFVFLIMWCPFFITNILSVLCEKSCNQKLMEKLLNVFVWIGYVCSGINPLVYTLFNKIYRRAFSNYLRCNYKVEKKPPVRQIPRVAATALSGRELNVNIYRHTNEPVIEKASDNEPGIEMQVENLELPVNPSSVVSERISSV
Protocol: To evaluate in radioligand binding assays the activity of compounds of the invention, human recombinant serotonin (5-Hydroxytryptamine) 5-HT2C receptor expressed in Chinese hamster ovary (CHO) K1 cells (Wolf, W. et al, J. Neurochem. 69:1449, 1997) in a modified Tris-HCl buffer (50 mM Tris-HCl, pH 7.4, 0.1% Ascorbic Acid, 10 μM Pargyline) was used. Compounds of the invention were incubated with 1 nM [^3H]Mesulergine for 60 min at 25° C. Non-specific binding was estimated in the presence of 1 μM Mianserin. Receptor proteins were filtered and washed, the filters were then counted to determine [^3H]Mesulergine specifically bound. Compounds were screened at 1 μM or lower, using 1% DMSO as vehicle. Biochemical assay results are presented as the percent inhibition of specific binding in Table 5.

[6] = target: T5, human recombinant serotonin (5-Hydroxytryptamine) 5-HT6 receptor (Homo sapiens, UniProt P50406); experiment: Serotonin 5-HT6 radioligand binding ([3H]LSD); settings: 0.1 μM compound; read-out: Percentage inhibition of ligand binding, Serotonin 5-HT6
T5 construct: expressed in transfected cells; host or cells: HeLa
Protocol: To evaluate in radioligand binding assays the activity of compounds of the invention, human recombinant serotonin (5-Hydroxytryptamine) 5-HT6 receptor expressed in human HeLa cells (Monsma, F. Jr. et al, Mol. Pharmacol. 43:320, 1993) in a modified Tris-HCl buffer (50 mM Tris-HCl, pH 7.4, 150 mM NaCl, 2 mM Ascorbic Acid, 0.001% BSA) was used. Compounds of the invention were incubated with 1.5 nM [3H]Lysergic acid diethylamide (LSD) for 120 min at 37° C. Non-specific binding was estimated in the presence of 5 μM Serotonin (5-HT). Receptor proteins were filtered and washed, the filters were then counted to determine [3H]LSD specifically bound. Compounds were screened at 1 μM or lower, using 1% DMSO as vehicle. Biochemical assay results are presented as the percent inhibition of specific binding in Table 5.

[7] = target: T6, human recombinant serotonin (5-Hydroxytryptamine) 5-HT7 receptor (Homo sapiens, UniProt P34969); experiment: Serotonin 5-HT7 radioligand binding ([3H]LSD); settings: 0.1 μM compound; read-out: Percentage inhibition of ligand binding, Serotonin 5-HT7
T6 construct: expressed in transfected cells; host or cells: CHO
Protocol: To evaluate in radioligand binding assays the activity of compounds of the invention, human recombinant serotonin (5-Hydroxytryptamine) 5-HT7 receptor expressed in Chinese hamster ovary (CHO) cells (Roth, B. et al, J. Pharmacol. Exp. Ther. 268:1403, 1994; Shen, Y. et al, J. Biol. Chem. 268:18200, 1993) in a modified Tris-HCl buffer (50 mM Tris-HCl, pH 7.4, 10 mM MgCl2, 0.5 mM EDTA) was used. Compounds of invention were incubated with 5.5 nM [^3H] Lysergic acid diethylamide (LSD) for 2 h at 25° C. Non-specific binding was estimated in the presence of 10 μM Serotonin (5-HT). Receptor proteins were filtered and washed, the filters were then counted to determine [^3H]LSD specifically bound. Compounds were screened at 1 μM or lower, using 1% DMSO as vehicle. Biochemical assay results are presented as the percent inhibition of specific binding in Table 5.

T6 sequence (P34969 whole entry): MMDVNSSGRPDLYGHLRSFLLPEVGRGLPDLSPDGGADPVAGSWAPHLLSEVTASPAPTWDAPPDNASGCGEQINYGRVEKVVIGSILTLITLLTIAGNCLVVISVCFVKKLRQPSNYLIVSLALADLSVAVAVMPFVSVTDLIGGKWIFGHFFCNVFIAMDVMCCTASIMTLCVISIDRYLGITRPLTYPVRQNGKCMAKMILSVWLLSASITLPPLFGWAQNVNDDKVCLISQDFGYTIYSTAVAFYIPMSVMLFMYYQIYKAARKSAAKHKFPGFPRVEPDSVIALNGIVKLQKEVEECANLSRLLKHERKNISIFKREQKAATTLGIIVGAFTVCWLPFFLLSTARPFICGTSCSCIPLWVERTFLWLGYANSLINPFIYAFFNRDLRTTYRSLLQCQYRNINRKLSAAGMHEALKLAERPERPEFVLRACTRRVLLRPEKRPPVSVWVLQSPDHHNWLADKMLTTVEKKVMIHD
T3 sequence (P28223 whole entry): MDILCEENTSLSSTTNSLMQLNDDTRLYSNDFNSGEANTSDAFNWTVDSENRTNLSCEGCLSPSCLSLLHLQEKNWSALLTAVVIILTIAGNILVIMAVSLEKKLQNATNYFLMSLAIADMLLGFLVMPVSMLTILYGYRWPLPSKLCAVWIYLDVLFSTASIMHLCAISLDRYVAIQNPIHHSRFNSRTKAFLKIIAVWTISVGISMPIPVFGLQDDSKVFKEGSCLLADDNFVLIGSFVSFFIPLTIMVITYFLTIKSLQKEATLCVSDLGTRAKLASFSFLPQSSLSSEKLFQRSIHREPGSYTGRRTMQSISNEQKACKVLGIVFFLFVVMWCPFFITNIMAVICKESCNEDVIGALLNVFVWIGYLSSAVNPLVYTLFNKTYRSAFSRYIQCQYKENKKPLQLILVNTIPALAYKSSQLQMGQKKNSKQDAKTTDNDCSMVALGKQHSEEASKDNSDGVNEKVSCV
T2 sequence (P14416 whole entry): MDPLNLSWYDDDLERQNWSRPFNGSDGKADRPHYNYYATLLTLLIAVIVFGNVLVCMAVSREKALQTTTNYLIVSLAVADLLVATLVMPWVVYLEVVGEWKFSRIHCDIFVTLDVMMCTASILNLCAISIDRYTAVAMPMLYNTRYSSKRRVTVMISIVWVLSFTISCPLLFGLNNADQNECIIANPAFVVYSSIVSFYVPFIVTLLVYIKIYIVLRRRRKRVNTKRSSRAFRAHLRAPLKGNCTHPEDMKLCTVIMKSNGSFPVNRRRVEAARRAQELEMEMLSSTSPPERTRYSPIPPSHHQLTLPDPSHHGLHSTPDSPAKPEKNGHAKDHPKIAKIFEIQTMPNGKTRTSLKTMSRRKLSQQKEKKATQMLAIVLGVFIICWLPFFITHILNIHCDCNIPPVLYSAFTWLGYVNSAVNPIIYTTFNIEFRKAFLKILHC
T1 sequence (P35367 whole entry): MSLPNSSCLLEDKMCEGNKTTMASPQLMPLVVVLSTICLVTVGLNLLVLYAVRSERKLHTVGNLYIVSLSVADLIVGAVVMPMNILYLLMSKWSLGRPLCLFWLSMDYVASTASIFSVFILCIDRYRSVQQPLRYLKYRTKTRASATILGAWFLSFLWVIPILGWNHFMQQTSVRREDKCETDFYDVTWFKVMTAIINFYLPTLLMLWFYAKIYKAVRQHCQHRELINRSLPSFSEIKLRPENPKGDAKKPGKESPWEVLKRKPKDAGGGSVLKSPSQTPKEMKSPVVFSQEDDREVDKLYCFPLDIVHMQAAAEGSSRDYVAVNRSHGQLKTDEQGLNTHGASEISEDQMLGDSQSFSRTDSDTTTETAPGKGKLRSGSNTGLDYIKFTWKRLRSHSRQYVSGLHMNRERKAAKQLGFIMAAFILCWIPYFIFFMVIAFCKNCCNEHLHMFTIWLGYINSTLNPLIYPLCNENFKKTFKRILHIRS
T5 sequence (P50406 whole entry): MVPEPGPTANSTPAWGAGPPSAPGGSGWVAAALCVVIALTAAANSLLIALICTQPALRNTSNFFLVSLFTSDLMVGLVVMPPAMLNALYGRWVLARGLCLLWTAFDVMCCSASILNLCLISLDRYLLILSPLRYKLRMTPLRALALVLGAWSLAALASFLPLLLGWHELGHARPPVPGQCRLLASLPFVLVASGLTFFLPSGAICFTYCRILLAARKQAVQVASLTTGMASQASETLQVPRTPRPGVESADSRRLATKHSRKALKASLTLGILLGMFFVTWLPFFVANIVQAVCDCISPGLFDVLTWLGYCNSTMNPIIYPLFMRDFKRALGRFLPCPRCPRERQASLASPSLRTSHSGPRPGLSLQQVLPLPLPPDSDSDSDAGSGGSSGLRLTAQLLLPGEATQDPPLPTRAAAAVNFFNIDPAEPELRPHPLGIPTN

| SMILES | maximum drop of arterial blood pressure [1] | inhibition at 1 µM [2] | inhibition at 1 µM [3] | inhibition at 0.1 µM [4] | inhibition at 0.1 µM [5] | inhibition at 0.1 µM [6] | inhibition at 0.1 µM [7] |
| --- | --- | --- | --- | --- | --- | --- | --- |
| Clc1cccc(Cl)c1N=C1NCCN1 [Clonidine] | −6 mmHg |  |  |  |  |  |  |
| CN1CCc2c(c3cc(Cl)ccc3n2C=C2CCCCC2)C1 [i-1] |  | 100% | 93% | 94% | 98% | 91% | 81% |
